Assay results published in patent US20250154140A1 (Sunnybrook Research Institute, priority 2022, published 2025).

Columns and labels:
[1] = target: T1, FL EGFR (Homo sapiens, UniProt P00533); test: EGFR kinase assay (ADP-Glo); type: biochemical
T1 construct: kinase domain of EGFR (amino acids 695-1210); purchased Promega V3831
Description: A peptide containing the kinase domain of EGFR (amino acids 695-1210) was used to assess the inhibitory potency of the inhibitors. The ADP-Glo kinase assay (Promega V9101), and the EGFR kinase enzyme (Promega V3831) were used according to the supplier's instructions. Briefly, […] reactions were assembled in wells of a 384 well plate as follows: 5 μL of the kinase reaction, 5 μL of the ADP depletion reagent, and 10 μL of the luciferase reagent. For the kinase reaction: 1 μL of the inhibitor (dissolved in DMSO) was mixed with 2 μL EGFR peptide ([…]), 1 μL of a poly Glu4Tyr1 peptide (0.2 μg/μL), 1 μL reaction buffer, and 1 μL of ATP (final concentration of 5 μM). The kinase reaction was incubated at room temperature for 1 hour. 5 μL of the ATP depletion/kinase terminating reagent was mixed into each well and incubated at room temperature for 40 minutes. 10 μL of the kinase detection reagent containing luciferase was mixed into each well and incubated at room temperature for 30 minutes for bioluminescent detection of ADP produced from the kinase reaction in step 1. Bioluminescent signal was detected in a Tecan Safire^2 with a black plug covering the excitation filter, and an empty emission filter. The integration time was increased to […] to detect enough luminescence per reading.

[2] = target: BAX (Homo sapiens, UniProt Q07812); test: Permeabilization of isolated mitochondria, Smac-mCherry release (cBID activated BAX); type: biochemical, mouse; design: made in house; host or cells: Escherichia coli BL21-AI; conditions: concentrations up to 60 uM
Description: Animal breeding and handling was performed in accordance with local regulations after approval by the Animal Care Committee at Sunnybrook Research Institute, Toronto. The isolation of mouse-liver mitochondria, and use with Bcl-2 family proteins to measure activity and protein-protein interactions was previously described in detail (Pogmore et al., 2016). In mouse liver, BAX is either cytoplasmic or loosely bound to mitochondria. Therefore, BAX is not present in isolated mitochondria. For this reason, when mitochondria are isolated from liver from BAK−/− mice they contain neither BAX or BAK. […] The supernatant was discarded, and the remaining pellet is resuspended in regeneration buffer (300 mM Trehalose, 10 mM HEPES-KOH pH 7.7, 80 mM KCl, 1 mM EGTA, 1 mM EDTA, 0.1% BSA, 5 mM succinate, 2 mM ATP, 10 μM phosphocreatine, and 10 μg/mL creatine kinase) at a protein concentration of 1 mg/mL, (determined by Bradford assay) for immediate use as the source of membranes for FRET measurements. […]
For BAX^−/−/BAK^−/−BMK SMAC-mCherry mitochondria, 2 nM cBID and 20 nM BAX was used to fully permeabilize the mitochondria. […] The percentage of SMAC-mCherry release was determined by fluorometric analysis of the supernatant and pellet fractions by measuring the fluorescence intensity (F) of mCherry (excitation 580, emission 610 in a Tecan M1000).

T1 sequence (P00533 695-1210): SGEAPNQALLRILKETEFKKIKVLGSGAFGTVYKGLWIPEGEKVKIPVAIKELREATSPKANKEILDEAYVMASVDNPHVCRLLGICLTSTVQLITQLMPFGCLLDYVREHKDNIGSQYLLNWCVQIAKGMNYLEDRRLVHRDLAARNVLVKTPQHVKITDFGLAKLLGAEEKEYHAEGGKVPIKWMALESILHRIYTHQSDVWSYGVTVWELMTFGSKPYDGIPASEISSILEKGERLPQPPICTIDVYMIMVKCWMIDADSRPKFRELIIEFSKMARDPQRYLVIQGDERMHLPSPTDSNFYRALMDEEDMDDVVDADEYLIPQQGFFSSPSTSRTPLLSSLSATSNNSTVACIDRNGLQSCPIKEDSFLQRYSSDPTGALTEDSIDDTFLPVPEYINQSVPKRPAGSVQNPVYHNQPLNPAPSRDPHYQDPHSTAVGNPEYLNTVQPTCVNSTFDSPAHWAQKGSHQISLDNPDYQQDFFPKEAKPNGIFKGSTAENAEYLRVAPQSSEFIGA
Sequence of BAX (Q07812 whole entry): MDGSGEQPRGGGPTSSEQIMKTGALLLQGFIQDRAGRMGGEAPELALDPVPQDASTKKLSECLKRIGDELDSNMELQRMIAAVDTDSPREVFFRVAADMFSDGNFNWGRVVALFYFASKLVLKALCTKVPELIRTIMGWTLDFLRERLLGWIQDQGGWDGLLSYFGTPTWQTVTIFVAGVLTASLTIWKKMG

| Compound | kinase inhibitory activity ([1]; at or below 10 uM) | inhibition of BAX mediated permeabilization of mitochondria [2] | Hill Slope ([1]; FL EGFR) |
| --- | --- | --- | --- |
| COc1cc2ccnc(Nc3ccc(F)c(Cl)c3)c2cc1NC(=O)CCCN1CCCCC1 [Compound I-1, N-(1-((3-chloro-4-fluorophenyl)amino)-6-methoxyisoquinolin-7-yl)-4-(piperidin-1-yl)butanamide] | no appreciable kinase inhibitory activity | equally effective inhibitors |  |
| COc1cc2ncnc(Nc3ccc(F)c(Cl)c3)c2cc1NC(=O)/C=C/CN1CCCCC1 [Dacomitinib, reference compound] |  | equally effective inhibitors | −1.3 |
